Patent US11286236B2, “Compound, agent and composition for the suppression of cancer growth” (Vector Vitale IP LLC, priority 2018, dated 2022)
Structures can show the parent of a compound that is named as a salt.

How the values were obtained:
Type in all cases: cell-based
[1] = test system: human Keratinocytes (HaCaT line); assay: Metabolic activity of human keratinocytes (HaCaT line)
Method: In Vitro Effects of Experimental Compound ^85Rbe-E2 on metabolic activity of human Keratinocytes
(§1) Proliferative and metabolic activity of cells was determined by the colorimetric method.
(§2) The metabolic activity of the cells (i.e., the number of living cells) was assessed by MTT staining.
(§3) 24 hours after the last reagent, the cells were seeded at a concentration of 1×10^4 cells/well in wells of a 96-well plate in complete DMEM nutrient medium with 10% FBS and 40 μg/ml gentamicin. The cells were cultured in a humidified atmosphere at 5% CO2 and 37° C. for 24 hours. After 24 hours, various doses of experimental substances were added to the respective wells. The cells were incubated at 37° C. and 5% CO2 for an additional 72 hours.
(§4) Upon completion of the incubation with the preparations, the proliferative and metabolic activity of the cells in the experiment was evaluated by the colorimetric method by staining MTT cells:
(§5) 10 μl of the MTT solution (5 mg/ml of the dye in phosphate-buffered saline) was added to each well of the plate; the plate was incubated in a CO2 incubator at 37° C. for 3 hours. After that, the medium was removed from the wells, and the formed tetraformazan crystals were dissolved in 100 μl of dimethylsulfoxide.
(§6) When MTT was used, the results were evaluated using a multi-well spectrophotometer at an excitation wavelength of 540 nm. The percentage of viable cells was calculated by the formula: IR=(A540(experiment)/A540(control))×100%.

Normal Human Fibroblasts = assay: Metabolic activity of normal human fibroblasts (MTT assay)
Method: In Vitro Assessment of the Effects of Experimental Compound ^85Rbe-E2 on metabolic Activity of Normal Human Fibroblasts (MTT Assay)
In Vitro Assessment of the Effects of E2+^85Rbe on Metabolic Activity of Normal Human Fibroblasts (MTT Assay)
as §1, §2, §3, §4, §5, §6

Mouse Bone Marrow Cells = assay: Cytotoxic/cytostatic effects on mouse bone marrow cells (MTT assay)
Method: In Vitro Assessment of Cytotoxic/Cytostatic Effects of Experimental Compound ^85Rbe-E2 on Mouse Bone Marrow Cells
as §1, §2, §3, §4, §5, §6

SMILES: Cc1ccc(S(=O)(=O)Nc2ccccc2NC(=O)c2ccccc2)cc1 [^85Rbe − E2, ^85Rb-enriched rubidium salt of N-benzoyl-N′-(4-toluenesulfonyl)-o-phenylenediamine]
- Metabolic activity of cells, % ([1]; 8 ng/ml): 114 ± 7.7%
- Metabolic activity of cells, % ([1]; 16 ng/ml): 98 ± 4%
- Metabolic activity of cells, % ([1]; 31 ng/ml): 97.8 ± 3.6%
- Metabolic activity of cells, % ([1]; 62 ng/ml): 90.7 ± 2.7%
- Metabolic activity of cells, % ([1]; 0.13 μg/ml): 95.3 ± 10.7%
- Metabolic activity of cells, % ([1]; 0.25 μg/ml): 100 ± 8.7%
- Metabolic activity of cells, % ([1]; 0.5 μg/ml): 90 ± 1%
- Metabolic activity of cells, % ([1]; 1 μg/ml): 0%
- Metabolic activity of cells, % (Normal Human Fibroblasts; 1.25 μg/ml): 105.1 ± 2.3%
- Metabolic activity of cells, % (Normal Human Fibroblasts; 2.5 μg/ml): 84.4 ± 4.6%
- Metabolic activity of cells, % (Normal Human Fibroblasts; 5 μg/ml): 82.3 ± 3^ %
- Metabolic activity of cells, % (Normal Human Fibroblasts; 10 μg/ml): 82.5 ± 1.3%
- Metabolic activity of cells, % (Normal Human Fibroblasts; 20 μg/ml): 74 ± 1.3%
- Metabolic activity of cells, % (Normal Human Fibroblasts; 38 μg/ml): 68.5 ± 1.8%
- Metabolic activity of cells, % (Normal Human Fibroblasts; 75 μg/ml): 67.4 ± 4.7%
- Metabolic activity of cells, % (Normal Human Fibroblasts; 150 μg/ml): 72.8 ± 2.1%
- Metabolic activity of cells, % (Mouse Bone Marrow Cells; 1.25 μg/ml): 119.1 ± 0.2%
- Metabolic activity of cells, % (Mouse Bone Marrow Cells; 2.5 μg/ml): 97.4 ± 1.4%
- Metabolic activity of cells, % (Mouse Bone Marrow Cells; 5 μg/ml): 90.2 ± 3.3%
- Metabolic activity of cells, % (Mouse Bone Marrow Cells; 10 μg/ml): 45 ± 4.7%
- Metabolic activity of cells, % (Mouse Bone Marrow Cells; 20 μg/ml): 24.2 ± 0.8%
- Metabolic activity of cells, % (Mouse Bone Marrow Cells; 38 μg/ml): 19.1 ± 1.9%
- Metabolic activity of cells, % (Mouse Bone Marrow Cells; 75 μg/ml): 18.5 ± 0.4%
- Metabolic activity of cells, % (Mouse Bone Marrow Cells; 150 μg/ml): 0%
